The subject of series [1] is mouse spleen cells. Nature of the series: Action against blast formation reaction of mouse spleen cells (ConA-induced DNA synthesis, 3H-thymidine intake). It is filed as cell-based, BALB/C mouse. Particulars: ConA 2 μg/ml, read-out: Activity (relative activity, 3H-thymidine intake, control = 100).
For series [2] the following is noted: cited from earlier work.
Series [3] concerns mouse spleen cells. Nature of the series: Action against blast formation reaction of mouse spleen cells (ConA-induced DNA synthesis, 3H-thymidine intake). Format: cell-based, BALB/C mouse. As to conditions: Experiment 1, 10^-4 M, ConA 2 μg/ml, read-out: Activity (relative activity, 3H-thymidine intake, control = 100). As for the experimental part:
Action Against Blast Formation Reaction of Mouse Spleen Cells The action of the compound of the present invention against the DNA synthesis of mouse spleen cells, which synthesis is induced by Concanavalin A (hereinafter referred to as ConA for short) was examined. 1×10^5 spleen cells of BALB/C mouse (female, 10 weeks old) were incubated with 2 μg/ml of ConA and 10^-6, 10^-5, or 10^-4 M of the compound of the present invention in RPMI 1640 medium containing 10% […] at 37° C. in an atmosphere containing 5% CO2 for 48 hours. Subsequently, ^3 H-thymidine was added to the culture and then the culture was incubated for another 18 hours. The incubated cells were collected with a harvester and the intake of ^3 H-thymidine by the cells was determined using a scintillation counter. The activity in the table is relative activity when the activity of the control is 100.

Series [4] concerns spleen cells producing anti-SRBC antibody. Description: Antibody production-promoting action (PFC number against SRBC, Jerne's method). It is filed as in vivo, ICR mice. As to conditions: oral, twice (day of immunization and next day), 3 days after immunization. As for the experimental part: Antibody Production-Promoting Action
The action of the compound of the present invention with respect to the antibody production of mouse against sheep red blood cells (SRBC) was examined.
To tail veins of ICR mice (female, 7 weeks old, 4 mice in each group), 5×10^7 SRBC were injected to immunize the mice. The compound of the present invention suspended in 0.5% methyl cellulose solution was orally administered twice to the mice on the day of immunization and on the next day. Three days after immunization, the number of spleen cells producing anti-SRBC antibody (PFC number) was checked by Jerne's method (Science Vol. 140, p. 405 (1963)).
In Table 2, the activity is the relative PFC number when the PFC number of the control is 100.

The test system of another series is rat EAE. Description: Action against experimental allergic encephalomyelitis (EAE) of rats. It is filed as in vivo, Lewis rat. As to conditions: subcutaneous, 8 times; for Survival Rate: 50 days after inoculation, control 6/8; for Crisis Day (Mean): control 9.1 ± 0.6; for Clin. Score (Mean): score 0 to 5, control 1.0 ± 0.4, * p < 0.01.
For another series, the system named is mice. Description: Acute toxicity (oral). Particulars: 300 mg/kg, 6 mice per group. It is filed as in vivo, ddY mice. An excerpt: Oral toxicity of the compound of the present invention was examined using mice.
The compound of the present invention was suspended in 0.5% solution of methyl cellulose and the suspension was orally administered to ddY mice (male, 7 weeks old, 6 mice per group). The conditions of the mice were observed and the number of deaths in 14 days from administration was checked.

A further series deals with immune system. Particulars: published by the inventors, Pharmaceutical Society of Japan 1984; cited from earlier work.

The values below come from patent publication US4760078A, “Immunomodulator 1,2-dithiol-3-thione derivative composition, use method and process of producing the same” (priority 1986, dated 1988).

Read-outs that look alike come from different tables or passages of the source.

In the case of `Cc1ccc(C=CC=Cc2cc(=S)ss2)cc1` [Compound 5, 5-{4-(p-toluyl)-1,3-butadienyl}-1,2-dithiol-3-thione], the activity at 10 µM in the series with mouse spleen cells [1] (Experiment 2, 10^-5 M) was 228%. Besides, the activity at 1 µM in the series on mouse spleen cells [1] (Experiment 2, 10^-6 M) was determined as 130%.
`c1ccc([C@H]2CN3CCSC3=N2)cc1` [levamisole]: in series [2] (clinical use, reported), the side effects result was “vomiturition, eruption and hemotoxicity”. Further, in series [2] (disappears upon stopping the administration), the “most serious side effect” value is recorded as “granulocytopenia”.
On to `COc1ccc(C=CC=Cc2cc(=S)ss2)cc1` [Compound 3, 5-{4-(4-methoxyphenyl)-1,3-butadienyl}-1,2-dithiol-3-thione], for which the activity at 100 µM in the series on mouse spleen cells [3] stood at 291%. Moreover, the “Activity (relative PFC number, control = 100)” value in series [4] (0.4 mg/kg) is recorded as 117; in series [4] (2.0 mg/kg), 186. In addition, the activity at 10 µM in the series with mouse spleen cells [1] (Experiment 1, 10^-5 M) came to 338%. In addition, the activity at 1 µM with mouse spleen cells [1] (Experiment 1, 10^-6 M) stood at 175%.
Consider `S=c1cc(C=CC=Cc2ccccc2)ss1` [Compound 1, 5-(4-phenyl-1,3-butadienyl)-1,2-dithiol-3-thione], for which, in the series on mouse spleen cells [3], the activity at 100 µM was 196%. Further, in series [4] (0.4 mg/kg), the “Activity (relative PFC number, control = 100)” value worked out at 258. Besides, the “Activity (relative PFC number, control = 100)” value in series [4] (2.0 mg/kg) is reported as 149. In addition, the activity at 10 µM with mouse spleen cells [1] (Experiment 1, 10^-5 M) turned out to be 281%. Also, the activity at 1 µM in the series on mouse spleen cells [1] (Experiment 1, 10^-6 M) was determined as 250%. Besides, in the series with rat EAE (0.3 mg/kg/d), the “Survival Rate” value was 8/8, the “Crisis Day (Mean)” value is 10.5 ± 0.9 and the “Clin. Score (Mean)” value came to 0.3 ± 0.1. Besides, in the series with rat EAE (3 mg/kg/d), the “Survival Rate” value is 8/8, the “Crisis Day (Mean)” value was 10.3 ± 0.7 and the “Clin. Score (Mean)” value is 0.2 ± 0.1.
In the case of `O=C(O)CCCCC1CCSS1` (racemic) [Lipoic Acid, DL-thioctic acid, reference compound], in the series with mouse spleen cells [3], the activity at 100 µM is 234%. For the same compound, the activity at 10 µM came to 146% in the series with mouse spleen cells [1] (Experiment 1, 10^-5 M) and 159% in the series on mouse spleen cells [1] (Experiment 2, 10^-5 M). Also, the activity at 1 µM was 142% in the series with mouse spleen cells [1] (Experiment 1, 10^-6 M) and 95% in the series with mouse spleen cells [1] (Experiment 2, 10^-6 M). Moreover, in the series on mice, the “number of deaths in 14 days from administration” value is recorded as “one mouse in 6 mice died”. Further, the immunomodulating effect result with immune system was “excellent immunomodulating effect”.
